# Measured values reported in PMC11649115, “In vitro safety evaluation of dopamine D3R antagonist, R-VK4-116, as a potential medication for the treatment of opioid use disorder” (PLOS ONE, 2024).
# How the values were obtained:
# CYP2B6 = molecular target: T1, CYP2B6 (Homo sapiens, UniProt P20813); experiment: CYP inhibition in human liver microsomes; details: human
# T1 sequence (P20813 1-491): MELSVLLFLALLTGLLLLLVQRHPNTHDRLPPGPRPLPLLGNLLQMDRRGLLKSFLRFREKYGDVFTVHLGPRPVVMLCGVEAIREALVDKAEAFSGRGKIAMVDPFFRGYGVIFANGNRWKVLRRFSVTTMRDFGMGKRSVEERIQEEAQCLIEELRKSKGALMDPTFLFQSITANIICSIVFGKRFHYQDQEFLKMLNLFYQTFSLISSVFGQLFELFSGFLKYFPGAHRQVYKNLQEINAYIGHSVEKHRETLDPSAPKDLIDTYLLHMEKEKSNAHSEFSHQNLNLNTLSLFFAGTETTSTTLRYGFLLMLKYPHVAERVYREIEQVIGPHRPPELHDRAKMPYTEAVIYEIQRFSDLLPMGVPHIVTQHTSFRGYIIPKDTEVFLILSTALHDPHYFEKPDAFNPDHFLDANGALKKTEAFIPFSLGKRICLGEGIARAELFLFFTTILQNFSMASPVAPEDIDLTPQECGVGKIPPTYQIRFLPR
# CYP2D6 = CYP2D6 (Homo sapiens, UniProt P10635); experiment: CYP inhibition in human liver microsomes; details: human
# CYP2D6, sequence (P10635 whole entry): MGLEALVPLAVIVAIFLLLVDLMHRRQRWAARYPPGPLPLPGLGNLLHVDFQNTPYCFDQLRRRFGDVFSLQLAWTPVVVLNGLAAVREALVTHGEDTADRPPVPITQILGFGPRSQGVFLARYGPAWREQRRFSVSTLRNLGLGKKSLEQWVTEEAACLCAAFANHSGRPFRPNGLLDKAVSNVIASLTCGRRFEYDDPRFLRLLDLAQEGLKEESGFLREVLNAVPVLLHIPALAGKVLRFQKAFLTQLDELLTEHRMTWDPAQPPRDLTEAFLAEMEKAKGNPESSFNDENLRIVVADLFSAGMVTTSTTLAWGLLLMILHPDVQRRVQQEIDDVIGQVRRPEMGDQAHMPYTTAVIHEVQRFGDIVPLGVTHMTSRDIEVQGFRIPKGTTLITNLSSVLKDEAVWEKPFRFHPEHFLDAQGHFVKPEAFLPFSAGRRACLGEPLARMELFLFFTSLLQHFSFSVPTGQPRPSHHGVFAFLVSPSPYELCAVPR
# CYP2C19 = CYP2C19 (Homo sapiens, UniProt P33261); experiment: CYP inhibition in human liver microsomes; details: human
# CYP2C19, sequence (P33261 whole entry): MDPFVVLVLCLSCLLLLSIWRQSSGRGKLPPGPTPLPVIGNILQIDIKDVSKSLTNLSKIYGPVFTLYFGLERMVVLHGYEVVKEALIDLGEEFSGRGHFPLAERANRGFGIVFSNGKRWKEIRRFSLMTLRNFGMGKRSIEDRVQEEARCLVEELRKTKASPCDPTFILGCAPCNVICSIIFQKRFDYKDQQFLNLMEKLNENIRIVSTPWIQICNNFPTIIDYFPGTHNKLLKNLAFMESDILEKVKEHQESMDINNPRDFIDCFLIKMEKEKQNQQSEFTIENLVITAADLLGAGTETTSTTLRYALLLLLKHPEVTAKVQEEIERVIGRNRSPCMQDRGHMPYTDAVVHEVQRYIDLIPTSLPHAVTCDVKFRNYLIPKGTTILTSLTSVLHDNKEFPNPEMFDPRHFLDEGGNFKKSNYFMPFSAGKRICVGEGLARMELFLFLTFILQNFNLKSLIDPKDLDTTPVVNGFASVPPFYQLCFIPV
# CYP1A2 = molecular target: T2, CYP1A2 (Homo sapiens, UniProt P05177); experiment: CYP inhibition in human liver microsomes; details: human
# T2 sequence (P05177 1-516): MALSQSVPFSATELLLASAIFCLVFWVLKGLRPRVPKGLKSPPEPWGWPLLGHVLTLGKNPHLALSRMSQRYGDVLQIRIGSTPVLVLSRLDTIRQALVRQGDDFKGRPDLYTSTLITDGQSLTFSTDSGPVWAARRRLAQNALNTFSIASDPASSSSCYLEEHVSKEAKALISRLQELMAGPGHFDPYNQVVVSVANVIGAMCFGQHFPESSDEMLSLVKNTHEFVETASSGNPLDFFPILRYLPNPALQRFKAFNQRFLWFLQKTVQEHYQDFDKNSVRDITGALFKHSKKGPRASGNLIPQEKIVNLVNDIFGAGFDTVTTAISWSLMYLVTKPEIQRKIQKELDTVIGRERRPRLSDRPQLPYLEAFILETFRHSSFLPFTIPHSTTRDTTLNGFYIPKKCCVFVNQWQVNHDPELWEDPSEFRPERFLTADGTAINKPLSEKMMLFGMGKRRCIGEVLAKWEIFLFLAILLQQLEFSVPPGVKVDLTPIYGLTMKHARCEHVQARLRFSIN
# CYP3A4 = CYP3A4 (Homo sapiens, UniProt P08684); experiment: CYP inhibition in human liver microsomes
# CYP3A4, sequence (P08684 2-503): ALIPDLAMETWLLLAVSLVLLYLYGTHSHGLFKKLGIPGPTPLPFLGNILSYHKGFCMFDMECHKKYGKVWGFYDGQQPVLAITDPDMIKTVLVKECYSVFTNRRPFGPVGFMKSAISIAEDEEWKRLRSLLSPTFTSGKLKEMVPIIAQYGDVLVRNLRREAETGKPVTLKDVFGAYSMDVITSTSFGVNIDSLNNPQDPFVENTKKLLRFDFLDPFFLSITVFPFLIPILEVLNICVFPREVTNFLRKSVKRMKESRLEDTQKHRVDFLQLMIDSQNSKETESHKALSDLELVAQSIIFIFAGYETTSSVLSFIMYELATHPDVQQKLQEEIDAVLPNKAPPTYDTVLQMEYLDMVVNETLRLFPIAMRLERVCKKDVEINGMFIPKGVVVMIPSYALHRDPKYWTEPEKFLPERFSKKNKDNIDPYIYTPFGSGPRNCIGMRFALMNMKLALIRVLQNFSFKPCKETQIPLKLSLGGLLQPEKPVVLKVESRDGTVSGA
# CYP2C9 = CYP2C9 (Homo sapiens, UniProt P11712); experiment: CYP inhibition in human liver microsomes; details: human
# CYP2C9, sequence (P11712 whole entry): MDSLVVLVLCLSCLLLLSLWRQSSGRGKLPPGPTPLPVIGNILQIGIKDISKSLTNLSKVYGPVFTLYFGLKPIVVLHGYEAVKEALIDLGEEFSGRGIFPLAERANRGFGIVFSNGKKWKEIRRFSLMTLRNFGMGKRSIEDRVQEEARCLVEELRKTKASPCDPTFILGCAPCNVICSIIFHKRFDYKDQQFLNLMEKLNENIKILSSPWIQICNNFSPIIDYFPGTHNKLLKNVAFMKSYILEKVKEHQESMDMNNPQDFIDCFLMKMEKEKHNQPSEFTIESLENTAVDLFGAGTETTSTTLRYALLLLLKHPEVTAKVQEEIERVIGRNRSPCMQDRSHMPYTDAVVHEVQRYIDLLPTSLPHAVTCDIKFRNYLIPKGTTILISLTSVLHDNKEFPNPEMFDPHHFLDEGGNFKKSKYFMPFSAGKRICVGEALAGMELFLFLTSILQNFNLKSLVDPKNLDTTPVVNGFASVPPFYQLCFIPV
# CYP2C8 = molecular target: T3, CYP2C8 (Homo sapiens, UniProt P10632); experiment: CYP inhibition in human liver microsomes; details: human
# T3 sequence (P10632 1-490): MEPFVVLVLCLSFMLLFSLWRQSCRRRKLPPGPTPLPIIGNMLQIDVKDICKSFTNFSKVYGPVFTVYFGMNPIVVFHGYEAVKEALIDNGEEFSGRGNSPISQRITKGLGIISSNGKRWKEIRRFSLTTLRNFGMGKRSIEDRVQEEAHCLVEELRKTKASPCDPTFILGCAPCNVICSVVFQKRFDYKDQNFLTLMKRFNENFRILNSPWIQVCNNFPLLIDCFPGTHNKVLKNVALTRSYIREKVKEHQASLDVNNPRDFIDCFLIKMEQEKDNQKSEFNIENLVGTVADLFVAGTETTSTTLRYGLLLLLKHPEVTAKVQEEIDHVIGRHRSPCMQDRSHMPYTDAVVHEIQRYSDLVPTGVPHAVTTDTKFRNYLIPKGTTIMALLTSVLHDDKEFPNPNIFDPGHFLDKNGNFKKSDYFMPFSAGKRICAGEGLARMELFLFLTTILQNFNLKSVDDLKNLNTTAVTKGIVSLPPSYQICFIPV
# OATP1B1 = molecular target: T4, OATP1B1 (Homo sapiens, UniProt Q9Y6L6); experiment: Transporter mediated assay (substrate/inhibitor), MDCK-II cells; format: in vitro ADME; details: human, polarized monolayer of MDCK-II cells expressing OATP1B1; OATP1B1, No BSA, 100 μM
# T4 construct: expressed in transfected cells; host or cells: MDCK-II cells
# T4 sequence (Q9Y6L6 1-691): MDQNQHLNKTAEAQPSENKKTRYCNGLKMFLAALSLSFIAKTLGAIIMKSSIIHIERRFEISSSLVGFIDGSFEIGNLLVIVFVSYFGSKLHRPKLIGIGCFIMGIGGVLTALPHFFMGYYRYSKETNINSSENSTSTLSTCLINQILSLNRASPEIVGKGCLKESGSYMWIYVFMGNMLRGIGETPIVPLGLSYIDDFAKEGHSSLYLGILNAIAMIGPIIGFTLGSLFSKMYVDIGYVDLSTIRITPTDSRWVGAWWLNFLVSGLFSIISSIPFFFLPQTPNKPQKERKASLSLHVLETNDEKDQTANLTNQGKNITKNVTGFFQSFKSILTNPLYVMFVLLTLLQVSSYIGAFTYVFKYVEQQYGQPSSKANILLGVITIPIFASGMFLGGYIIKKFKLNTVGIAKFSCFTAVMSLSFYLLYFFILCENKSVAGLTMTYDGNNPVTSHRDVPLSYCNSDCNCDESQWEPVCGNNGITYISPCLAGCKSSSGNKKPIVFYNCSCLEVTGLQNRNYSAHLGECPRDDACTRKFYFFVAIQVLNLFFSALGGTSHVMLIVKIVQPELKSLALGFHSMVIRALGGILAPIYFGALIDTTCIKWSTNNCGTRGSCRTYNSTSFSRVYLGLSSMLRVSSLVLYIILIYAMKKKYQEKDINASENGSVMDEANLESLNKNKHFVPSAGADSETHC
# Description: (§1) The MDCK-II cells were treated to express the transporter of interest. The transport of each probe substrate was determined by radiometric detection (Fig 1 in S1 File). […] For the uptake assay, the net transporter-mediated uptake-rate (V) of the substrate by each SLC transporter was calculated as follows: Transporter–mediatedupdaterate(pmol/min/cm^2)=(Cellularaccumulationincellsexpressingthetransporter)−(Meancellularaccumulationincontrolcells)/Surfacearea×incubationtime
# (§2) Fold of activity and percent inhibition were determined as follows: Foldofactivity=(Meanuptakerate)transporterexpressingcells/(Meanuptakerate)controlcells Percentinhibition=100−100×(Transport‐mediatedupdaterate)withinhibitor/(Transport‐mediatedupdaterate)vehiclecontrol
# OATP1B3 = molecular target: T5, OATP1B3 (Homo sapiens, UniProt Q9NPD5); experiment: as above; format: in vitro ADME; details: human, polarized monolayer of MDCK-II cells expressing OATP1B3; OATP1B3, No BSA, 100 μM
# T5 construct: expressed in transfected cells; host or cells: MDCK-II cells
# T5 sequence (Q9NPD5 1-702): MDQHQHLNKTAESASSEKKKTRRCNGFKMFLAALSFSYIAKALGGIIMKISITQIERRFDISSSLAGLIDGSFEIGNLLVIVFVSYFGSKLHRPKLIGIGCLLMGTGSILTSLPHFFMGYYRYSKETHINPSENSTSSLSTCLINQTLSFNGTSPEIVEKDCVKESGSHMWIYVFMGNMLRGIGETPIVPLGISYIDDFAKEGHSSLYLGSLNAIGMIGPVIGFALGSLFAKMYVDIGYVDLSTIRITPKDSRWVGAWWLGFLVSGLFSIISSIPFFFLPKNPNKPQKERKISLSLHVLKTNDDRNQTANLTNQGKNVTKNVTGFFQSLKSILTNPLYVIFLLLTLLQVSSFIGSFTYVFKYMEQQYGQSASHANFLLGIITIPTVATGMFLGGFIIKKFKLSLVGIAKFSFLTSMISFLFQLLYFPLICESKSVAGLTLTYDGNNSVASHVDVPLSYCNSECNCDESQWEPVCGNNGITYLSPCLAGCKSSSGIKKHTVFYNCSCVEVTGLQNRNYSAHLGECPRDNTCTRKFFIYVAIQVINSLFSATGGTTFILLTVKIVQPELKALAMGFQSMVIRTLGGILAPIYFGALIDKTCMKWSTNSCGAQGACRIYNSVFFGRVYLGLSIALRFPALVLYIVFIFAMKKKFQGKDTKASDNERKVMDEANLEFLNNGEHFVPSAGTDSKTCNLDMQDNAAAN
# Description: as §1, §2
# OAT3 = molecular target: T6, OAT3 (Homo sapiens, UniProt Q8TCC7); experiment: as above; format: in vitro ADME; details: human; OAT3, No BSA, 100 μM
# T6 construct: expressed in transfected cells; host or cells: MDCK-II cells
# T6 sequence (Q8TCC7 1-542): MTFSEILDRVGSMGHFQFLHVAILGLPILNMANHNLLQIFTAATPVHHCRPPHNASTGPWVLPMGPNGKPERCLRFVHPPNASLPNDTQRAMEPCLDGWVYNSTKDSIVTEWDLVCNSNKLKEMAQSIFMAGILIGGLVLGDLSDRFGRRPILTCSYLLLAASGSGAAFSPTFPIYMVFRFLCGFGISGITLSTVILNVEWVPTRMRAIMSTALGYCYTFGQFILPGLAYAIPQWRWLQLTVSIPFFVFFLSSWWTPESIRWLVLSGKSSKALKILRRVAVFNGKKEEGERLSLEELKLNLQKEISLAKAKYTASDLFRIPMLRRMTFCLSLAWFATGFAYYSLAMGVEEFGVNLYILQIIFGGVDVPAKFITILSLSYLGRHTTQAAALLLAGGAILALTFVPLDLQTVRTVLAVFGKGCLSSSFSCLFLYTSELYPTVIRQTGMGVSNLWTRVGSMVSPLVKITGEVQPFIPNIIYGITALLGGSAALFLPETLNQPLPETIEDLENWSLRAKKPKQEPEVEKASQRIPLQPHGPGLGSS
# Description: as §1, §2
# P-gp = molecular target: T7, P-gp (Homo sapiens, UniProt P08183); experiment: as above; format: in vitro ADME; details: P-gp, substrate test, 0.1 µM
# T7 construct: expressed in transfected cells; host or cells: MDCK-II cells
# T7 sequence (P08183 whole entry): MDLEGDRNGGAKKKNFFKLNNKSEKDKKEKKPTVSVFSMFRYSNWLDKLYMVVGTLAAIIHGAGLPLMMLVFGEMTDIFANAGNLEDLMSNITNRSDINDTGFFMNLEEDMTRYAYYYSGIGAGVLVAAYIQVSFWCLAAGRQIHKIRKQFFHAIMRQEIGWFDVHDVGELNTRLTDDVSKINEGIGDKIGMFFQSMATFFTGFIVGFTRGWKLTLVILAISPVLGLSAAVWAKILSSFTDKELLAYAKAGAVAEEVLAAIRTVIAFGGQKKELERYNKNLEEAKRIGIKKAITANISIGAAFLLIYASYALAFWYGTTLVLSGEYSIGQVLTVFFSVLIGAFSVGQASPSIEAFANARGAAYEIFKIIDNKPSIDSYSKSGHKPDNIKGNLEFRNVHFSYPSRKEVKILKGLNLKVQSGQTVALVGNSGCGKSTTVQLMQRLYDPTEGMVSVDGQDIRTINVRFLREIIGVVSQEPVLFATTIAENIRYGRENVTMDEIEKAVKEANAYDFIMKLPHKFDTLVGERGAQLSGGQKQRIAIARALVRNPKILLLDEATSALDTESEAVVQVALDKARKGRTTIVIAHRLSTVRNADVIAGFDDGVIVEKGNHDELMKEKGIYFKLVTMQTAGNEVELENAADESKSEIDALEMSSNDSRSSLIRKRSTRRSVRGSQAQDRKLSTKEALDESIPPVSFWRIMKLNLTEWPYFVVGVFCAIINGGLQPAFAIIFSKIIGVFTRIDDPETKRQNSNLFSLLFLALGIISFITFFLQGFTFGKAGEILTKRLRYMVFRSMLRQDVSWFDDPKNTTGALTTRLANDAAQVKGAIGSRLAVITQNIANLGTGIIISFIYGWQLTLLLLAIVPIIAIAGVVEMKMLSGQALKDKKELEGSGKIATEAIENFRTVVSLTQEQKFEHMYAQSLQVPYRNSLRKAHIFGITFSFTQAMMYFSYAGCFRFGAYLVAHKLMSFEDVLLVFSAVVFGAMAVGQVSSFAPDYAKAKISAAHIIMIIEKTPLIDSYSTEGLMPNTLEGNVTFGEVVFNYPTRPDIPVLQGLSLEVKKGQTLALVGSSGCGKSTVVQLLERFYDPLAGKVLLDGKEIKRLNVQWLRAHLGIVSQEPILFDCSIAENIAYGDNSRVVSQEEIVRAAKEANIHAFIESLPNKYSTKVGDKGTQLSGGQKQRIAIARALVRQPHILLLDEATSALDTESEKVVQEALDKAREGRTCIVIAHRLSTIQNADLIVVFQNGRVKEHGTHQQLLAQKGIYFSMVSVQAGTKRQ
# Description: The MDCK-II cells were treated to express the transporter of interest.
# For BCRP and P-gp, the apparent permeability Papp and Efflux Ratio (ER) were calculated [16]. Net basal (B) to apical (A) flux (B → A) of the substrate transport (pmol/min/cm^2) by BCRP or P-gp was calculated by subtracting A → B flux from B → A flux.
# OCT2 = molecular target: T8, OCT2 (Homo sapiens, UniProt O15244); experiment: as above; format: in vitro ADME; details: human, polarized monolayer of MDCK-II cells expressing OCT2; OCT2, No BSA, 1000 μM
# T8 construct: expressed in transfected cells; host or cells: MDCK-II cells
# T8 sequence (O15244 1-555): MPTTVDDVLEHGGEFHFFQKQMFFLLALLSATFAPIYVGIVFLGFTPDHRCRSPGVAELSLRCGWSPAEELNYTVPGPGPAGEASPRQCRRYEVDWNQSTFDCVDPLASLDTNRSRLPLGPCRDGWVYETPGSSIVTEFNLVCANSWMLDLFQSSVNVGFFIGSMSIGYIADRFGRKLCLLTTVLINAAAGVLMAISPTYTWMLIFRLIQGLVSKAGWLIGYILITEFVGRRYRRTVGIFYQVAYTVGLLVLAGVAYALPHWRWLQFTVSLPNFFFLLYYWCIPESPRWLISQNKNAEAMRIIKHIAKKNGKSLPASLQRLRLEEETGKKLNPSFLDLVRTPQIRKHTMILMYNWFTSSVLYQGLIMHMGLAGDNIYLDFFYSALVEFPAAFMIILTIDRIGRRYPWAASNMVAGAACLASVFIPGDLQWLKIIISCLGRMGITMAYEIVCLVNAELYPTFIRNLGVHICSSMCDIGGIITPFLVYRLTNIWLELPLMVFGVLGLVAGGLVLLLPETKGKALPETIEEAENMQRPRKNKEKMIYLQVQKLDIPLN
# Description: as §1, §2
# [1] = CYP activity (% of Control) 3A4 (Midazolam), substrate midazolam
# [2] = CYP activity (% of Control) 3A4 (Testosterone), substrate testosterone
smiles,measurement,setting,value
S=P(N1CC1)(N1CC1)N1CC1 [ThioTEPA],"activity at 20 min, 10 µM",CYP2B6; microsomes,52 ± 0.1%
same,"activity at 20 min, 10 µM",CYP2D6; microsomes,90.7 ± 2%
same,"activity at 20 min, 10 µM",CYP2C19; microsomes,108 ± 4.3%
same,"activity at 20 min, 10 µM",CYP1A2; microsomes,93.8 ± 4.3%
same,"activity at 20 min, 10 µM",CYP3A4; [1],92.6 ± 2.2%
same,"activity at 20 min, 10 µM",CYP3A4; [2],91.4 ± 1.3%
same,"activity at 20 min, 10 µM",CYP2C9; microsomes,92.9 ± 1.5%
same,"activity at 20 min, 10 µM",CYP2C8; microsomes,96.8 ± 4.4%
"CO[C@H]1/C=C/O[C@@]2(C)Oc3c(C)c(O)c4c(O)c(c(/C=N/N5CCN(C)CC5)c(O)c4c3C2=O)NC(=O)/C(C)=C\C=C\[C@H](C)[C@H](O)[C@@H](C)[C@@H](O)[C@@H](C)[C@H](OC(C)=O)[C@@H]1C [Rifampicin, reference compound]",inhibition at 100 µM,OATP1B1,98.3 ± 1.37%
same,inhibition at 100 µM,OATP1B3,99.2 ± 0.26%
"CCCN(CCC)S(=O)(=O)c1ccc(C(=O)O)cc1 [probenecid, reference compound]",inhibition at 100 µM,OAT3,95.3 ± 0.73%
C=C(C)[C@@H]1CCC2=CC(=O)C[C@@H](C)[C@]2(C)C1 [Nootkatone],"activity at 20 min, 30 µM",CYP2B6; microsomes,23.8 ± 2.7%
same,"activity at 20 min, 30 µM",CYP2D6; microsomes,91.9 ± 8.4%
same,"activity at 20 min, 30 µM",CYP2C19; microsomes,57.3 ± 5.7%
same,"activity at 20 min, 30 µM",CYP1A2; microsomes,91.3 ± 4.8%
same,"activity at 20 min, 30 µM",CYP3A4; [1],84.5 ± 4%
same,"activity at 20 min, 30 µM",CYP3A4; [2],79.4 ± 5.4%
same,"activity at 20 min, 30 µM",CYP2C9; microsomes,84.6 ± 8.5%
same,"activity at 20 min, 30 µM",CYP2C8; microsomes,78.8 ± 12.5%
"C=C[C@H]1C[N@@]2CC[C@H]1C[C@@H]2[C@@H](O)c1ccnc2ccc(OC)cc12 [quinidine, reference compound]","activity at 20 min, 2 µM","CYP2B6; human liver microsomes, probe bupropion",91.6 ± 2.4%
same,Vectorial Net Transport (B->A) - (A->B),P-gp,0.52 ± 0.03 pmoles/min/cm^2
same,Papp A→B at 0.1 µM,"P-gp; human, MDCK-MDR1",2.62 ± 0.42 ×10⁻⁶ cm/s
same,Papp B→A at 0.1 µM,"P-gp; human, MDCK-MDR1",80.7 ± 4.23 ×10⁻⁶ cm/s
same,"activity at 20 min, 2 µM","CYP2D6; human liver microsomes, probe bufuralol",17.3 ± 0.2%
same,inhibition at 1000 µM,OCT2,100 ± 0.21%
same,"activity at 20 min, 2 µM","CYP2C19; human liver microsomes, probe mephenytoin",97.7 ± 2.3%
same,"activity at 20 min, 2 µM","CYP1A2; human liver microsomes, probe phenacetin",88.3 ± 1%
same,"activity at 20 min, 2 µM","CYP2C9; human liver microsomes, probe diclofenac",82.7 ± 1.1%
same,"activity at 20 min, 2 µM","CYP2C8; human liver microsomes, probe paclitaxel",71.3 ± 2.2%
